The record followed here is patent US11020398B2, “Amino-pyrrolopyrimidinone compounds and methods of use thereof” (ArQule, Inc., priority 2016, dated 2021).

The target in assay [1] is full-length activated BTK (wildtype) (Homo sapiens (Human), UniProt Q06187). Briefly: AlphaScreen assay, wild-type BTK. It is filed as biochemical. On the procedure:
(§1) The activated BTK was frozen in 50 μl aliquots (125-150 μg/ml).
(§2) BTK activity was assayed using a PLCγ2-derived biotinylated peptide substrate (biotin-[…]-OH) and AlphaScreen™ (Amplified Luminescent Proximity Homogeneous Assay) technology. The extent of peptide phosphorylation was determined by using acceptor beads conjugated to phosphotyrosine antibody that recognized the phosphorylated peptide and donor beads conjugated to streptavidin that binds to the biotin on the peptide. Excitation of the donor beads converted ambient oxygen to excited singlet oxygen which when in close proximity to acceptor beads, reacted with acceptor beads resulting in signal amplification.
(§3) Test inhibitors and controls were prepared in 10% DMSO at 10-fold the desired final concentration and added to each well of a reaction plate (Corning 96-well half-area solid white nonbinding surface plate) in a volume of 2.5 μl. […] The plate was incubated for 120 min at room temperature and the reaction stopped by the addition of 10 μl stop/detection mixture containing 35 mM EDTA, 50 ug/ml AlphaScreen™ Streptavidin Donor beads (final concentration is 500 ng/well) and AlphaScreen™ Phospho-tyrosine (P-Tyr-100) Acceptor beads (final concentration is 500 ng/well) under green light conditions. The plate was incubated overnight at room temperature in the dark and the plates read on the BMG PolarStar Omega ([…], Gain=4000). Data were archived and analyzed with a 4-parameter fit to generate IC50 values using the CDD Vault from Collaborative Drug Discovery.

Assay [2] concerns the target full-length activated BTK mutant C481S (Homo sapiens (Human), UniProt Q06187, C481S). Kind of assay: AlphaScreen assay, BTK mutant C481S. Type of assay: biochemical. The following applies: for inhibition at 10 µM: read-out: BTK-C481S % @ 10 uM, @ 10 uM. As for the experimental part:
as §1, §2, §3

Sequence of full-length activated BTK mutant C481S (Q06187 whole entry C481S): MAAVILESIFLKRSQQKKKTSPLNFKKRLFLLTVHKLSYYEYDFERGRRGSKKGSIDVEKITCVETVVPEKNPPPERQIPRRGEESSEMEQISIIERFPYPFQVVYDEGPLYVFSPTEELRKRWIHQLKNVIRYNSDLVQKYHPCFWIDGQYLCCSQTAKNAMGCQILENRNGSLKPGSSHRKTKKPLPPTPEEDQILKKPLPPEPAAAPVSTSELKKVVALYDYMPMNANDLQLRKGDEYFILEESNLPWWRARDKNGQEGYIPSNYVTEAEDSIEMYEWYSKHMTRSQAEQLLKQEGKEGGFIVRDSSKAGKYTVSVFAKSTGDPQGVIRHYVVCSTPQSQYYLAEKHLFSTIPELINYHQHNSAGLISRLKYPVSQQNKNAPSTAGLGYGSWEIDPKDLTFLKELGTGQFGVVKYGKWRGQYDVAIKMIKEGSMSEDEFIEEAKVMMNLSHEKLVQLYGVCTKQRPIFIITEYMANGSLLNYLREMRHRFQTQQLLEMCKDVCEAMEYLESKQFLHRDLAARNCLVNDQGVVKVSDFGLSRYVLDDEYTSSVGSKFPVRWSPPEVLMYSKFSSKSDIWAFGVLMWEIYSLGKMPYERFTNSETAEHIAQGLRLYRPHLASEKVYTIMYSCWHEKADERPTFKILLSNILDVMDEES
Sequence of full-length activated BTK (wildtype) (Q06187 whole entry): as the sequence (Q06187 whole entry C481S) above, with S481C counted along it

`CN1C[C@H](CNc2ncnc3[nH]cc(C(=O)c4ccc(Oc5ccccc5)cc4Cl)c23)C[C@H]1CO` [Compound I-370e, (2-chloro-4-phenoxyphenyl)(4-((((3S,5S)-5-(hydroxymethyl)-1-methylpyrrolidin-3-yl)methyl)amino)-7H-pyrrolo[2,3-d]pyrimidin-5-yl)methanone]: the values for the IC50 in assay [1] and in assay [2] were 59.5 nM and 49.8 nM, respectively.

`O=C(c1ccc(Oc2ccccc2)cc1Cl)c1c[nH]c2ncnc(NC3CCC(CO)NC3)c12` (racemic) [Compound I-343r, rac-(2-chloro-4-phenoxyphenyl)(4-((6-(hydroxymethyl)piperidin-3-yl)amino)-7H-pyrrolo[2,3-d]pyrimidin-5-yl)methanone]: the results for the IC50 in assay [1] and in assay [2] were 11 nM and 34 nM, respectively.

As to `O=C(Nc1cccnc1)Nc1ccc(Cl)c(C(=O)c2c[nH]c3ncnc(N[C@@H]4CC[C@@H](CO)OC4)c23)c1` [Compound I-609, 1-(4-chloro-3-(4-(((3R,6S)-6-(hydroxymethyl)tetrahydro-2H-pyran-3-yl)amino)-7H-pyrrolo[2,3-d]pyrimidine-5-carbonyl)phenyl)-3-(pyridin-3-yl)urea], the figures for the IC50 in assay [1] and in assay [2] were 114 nM and 519 nM, respectively.

For the compound `CNC(=O)c1cccc(Oc2ccc(C(=O)c3c[nH]c4ncnc(N[C@@H]5CC[C@@H](CO)OC5)c34)c(Cl)c2)n1` [Compound I-319, 6-(3-chloro-4-(4-(((3R,6S)-6-(hydroxymethyl)tetrahydro-2H-pyran-3-yl)amino)-7H-pyrrolo[2,3-d]pyrimidine-5-carbonyl)phenoxy)-N-methyl picolinamide], the IC50 in assay [1] is 444 nM; in assay [2] it was 127 nM.

In the case of `O=C(c1cc(NC(=O)C2(c3ccccc3)CC2)ccc1Cl)c1c[nH]c2ncnc(N[C@@H]3CC[C@@H](CO)OC3)c12` [Compound I-605, N-(4-chloro-3-(4-(((3R,6S)-6-(hydroxymethyl)tetrahydro-2H-pyran-3-yl)amino)-7H-pyrrolo[2,3-d]pyrimidine-5-carbonyl)phenyl)-1-phenylcyclopropane-1-carboxamide], the IC50 in assay [1] turned out to be 467 nM; in assay [2], 1860 nM.

As to `O=C(c1ccc(Oc2ccccc2)cc1Cl)c1c[nH]c2ncnc(NC[C@H]3CC[C@@H](CO)O3)c12` [Compound I-362e, (2-chloro-4-phenoxyphenyl)(4-((((2R,5S)-5-(hydroxymethyl)tetrahydrofuran-2-yl)methyl)amino)-7H-pyrrolo[2,3-d]pyrimidin-5-yl)methanone], the concentration for half-maximal inhibition (IC50) in assay [1] is 35.6 nM; in assay [2], 44.5 nM.

In the case of `CNC(=O)c1cccc(Oc2ccc(C(=O)c3c[nH]c4ncnc(N[C@@H]5CC[C@@H](CO)OC5)c34)cc2)n1` [Compound I-320, 6-(4-(4-(((3R,6S)-6-(hydroxymethyl)tetrahydro-2H-pyran-3-yl)amino)-7H-pyrrolo[2,3-d]pyrimidine-5-carbonyl)phenoxy)-N-methylpicolinamide], the values for the half-inhibitory concentration (IC50) in assay [1] and in assay [2] were 336 nM and 63.1 nM, respectively.

As to `O=C(Nc1cccnc1)c1ccc(C(=O)c2c[nH]c3ncnc(N[C@@H]4CC[C@@H](CO)OC4)c23)c(Cl)c1` [Compound I-256, 3-chloro-4-(4-(((3R,6S)-6-(hydroxymethyl)tetrahydro-2H-pyran-3-yl)amino)-7H-pyrrolo[2,3-d]pyrimidine-5-carbonyl)-N-(pyridin-3-yl)benzamide], the IC50 in assay [1] was determined as 156 nM; in assay [2] it was 317 nM.

On to `CS(=O)(=O)N1C[C@H](Nc2ncnc3[nH]cc(C(=O)c4ccc(Oc5ccccc5)cc4Cl)c23)C[C@H]1CO` [Compound I-656, (2-chloro-4-phenoxyphenyl)(4-(((3R,5S)-5-(hydroxymethyl)-1-(methylsulfonyl)pyrrolidin-3-yl)amino)-7H-pyrrolo[2,3-d]pyrimidin-5-yl)methanone], for which the 50% inhibitory concentration (IC50) came out at 123 nM in assay [1] and 254 nM in assay [2].

For `COCCOc1ccc(C(=O)c2c[nH]c3ncnc(N[C@@H]4CC[C@@H](CO)OC4)c23)c(Cl)c1` [Compound I-317i, (2-chloro-4-(2-methoxyethoxy)phenyl)(4-(((3R,6S)-6-(hydroxymethyl)tetrahydro-2H-pyran-3-yl)amino)-7H-pyrrolo[2,3-d]pyrimidin-5-yl)methanone], the IC50 in assay [1] came out at 40.7 nM; in assay [2] it was 156 nM.

Consider `O=C(NCc1ccccc1)c1ccc(Cl)c(C(=O)c2c[nH]c3ncnc(N[C@@H]4CC[C@@H](CO)OC4)c23)c1` [Compound I-628, N-benzyl-4-chloro-3-(4-(((3R,6S)-6-(hydroxymethyl)tetrahydro-2H-pyran-3-yl)amino)-7H-pyrrolo[2,3-d]pyrimidine-5-carbonyl)benzamide], for which the IC50 in assay [1] stood at 59.7 nM; in assay [2], 161 nM.

Regarding `CC#CC(=O)N1CCCC(Nc2ncnc3[nH]cc(C(=O)c4ccc(Oc5ccccc5)cc4Cl)c23)C1` (racemic) [Compound I-324r, (racemic)-1-(3-((5-(2-chloro-4-phenoxybenzoyl)-7H-pyrrolo[2,3-d]pyrimidin-4-yl)amino)piperidin-1-yl)but-2-yn-1-one], the IC50 was 17.2 nM in assay [1] and 105 nM in assay [2].

Regarding `CN1CCN(C(=O)c2ccc(Cl)c(C(=O)c3c[nH]c4ncnc(N[C@@H]5CC[C@@H](CO)OC5)c34)c2)CC1` [Compound I-622, (4-chloro-3-(4-(((3R,6S)-6-(hydroxymethyl)tetrahydro-2H-pyran-3-yl)amino)-7H-pyrrolo[2,3-d]pyrimidine-5-carbonyl)phenyl)(4-methylpiperazin-1-yl)methanone], the IC50 in assay [1] amounted to 847 nM. Moreover, the inhibition at 10 µM in assay [2] worked out at 62%.

As to `CN1C[C@H](Nc2ncnc3[nH]cc(C(=O)c4ccc(Oc5ccccc5)cc4Cl)c23)C[C@H]1CO` [Compound I-342e, (2-chloro-4-phenoxyphenyl)(4-(((3R,5S)-5-(hydroxymethyl)-1-methylpyrrolidin-3-yl)amino)-7H-pyrrolo[2,3-d]pyrimidin-5-yl)methanone], the IC50 came to 14.2 nM in assay [1] and 33.4 nM in assay [2].

For the compound `CN1CCN(C(=O)c2ccc(C(=O)c3c[nH]c4ncnc(N[C@@H]5CC[C@@H](CO)OC5)c34)c(Cl)c2)CC1` [Compound I-620, (3-chloro-4-(4-(((3R,6S)-6-(hydroxymethyl)tetrahydro-2H-pyran-3-yl)amino)-7H-pyrrolo[2,3-d]pyrimidine-5-carbonyl)phenyl)(4-methylpiperazin-1-yl)methanone], in assay [1], the IC50 worked out at 598 nM. Also, the inhibition at 10 µM in assay [2] is 70%.

In assay [1], `COCCOc1cccc(C(=O)c2c[nH]c3ncnc(N[C@@H]4CC[C@@H](CO)OC4)c23)c1` [Compound I-649, (4-(((3R,6S)-6-(hydroxymethyl)tetrahydro-2H-pyran-3-yl)amino)-7H-pyrrolo[2,3-d]pyrimidin-5-yl)(3-(2-methoxyethoxy)phenyl)methanone] came in with an IC50 of 959 nM. In assay [2], the inhibition at 10 µM came to 82%.

For the compound `O=C(Nc1ccccc1)Nc1ccc(Cl)c(C(=O)c2c[nH]c3ncnc(N[C@@H]4CC[C@@H](CO)OC4)c23)c1` [Compound I-608, 1-(4-chloro-3-(4-(((3R,6S)-6-(hydroxymethyl)tetrahydro-2H-pyran-3-yl)amino)-7H-pyrrolo[2,3-d]pyrimidine-5-carbonyl)phenyl)-3-phenylurea], the IC50 in assay [1] is 8.19 nM; in assay [2] it was 187 nM.
